The values that follow are results of earlier work, collected in patent US20110104282A1, “New Therapy of Treatment of the Irritable Bowel Syndrome” (Karolinska Institutet Innovations AB, priority 2008, published 2011).

The conditions of this data set: on occasion.

SMILES strings stand for the structures.

For the compound `N[C@@H](Cc1c[nH]c2ccccc12)C(=O)O` [tryptophan], the “adverse side effects of high doses” value was “intestinal discomfort and nausea”.
